Data on 20 compounds can be found in patent US9549558B2, “Herbicidal azines” (BASF SE, priority 2012, dated 2017).

Holding throughout (test): greenhouse pre-emergence herbicidal test
Holding throughout (assay type): in vivo

The subject of one experiment is SETFA (Setaria faberi). The source says: (§1) The culture containers used were plastic flowerpots containing loamy sand with approximately 3.0% of humus as the substrate. The seeds of the test plants were sown separately for each species.
(§2) For the pre-emergence treatment, the active ingredients, which had been suspended or emulsified in water, were applied directly after sowing by means of finely distributing nozzles. The containers were irrigated gently to promote germination and growth and subsequently covered with transparent plastic hoods until the plants had rooted. This cover caused uniform germination of the test plants, unless this had been impaired by the active ingredients.
(§3) Depending on the species, the plants were kept at 10-25° C. or 20-35° C., respectively.
(§4) The test period extended over 2 to 4 weeks. During this time, the plants were tended, and their response to the individual treatments was evaluated.
(§5) Evaluation was carried out using a scale from 0 to 100. 100 means no emergence of the plants, or complete destruction of at least the aerial moieties, and 0 means no damage, or normal course of growth. A moderate herbicidal activity is given at values of at least 60, a good herbicidal activity is given at values of at least 70, and a very good herbicidal activity is given at values of at least 85.
(§6) The plants used in the greenhouse experiments were of the following species: […]

The next experiment concerns STEME (Stellaria media).
From the text: as §1, §2, §3, §4, §5, §6

Experiment [1] concerns CAPBP (Capsella bursa-pastoris). The note with it: CAPBP.
From the text: as §1, §2, §3, §4, §5, §6

Experiment [2] relates to AMARE (Amaranthus retroflexus). The source says: (§7) The seeds of the test plants were sown separately for each species. For the pre-emergence treatment, the active ingredients, which had been suspended or emulsified in water, were applied directly after sowing by means of finely distributing nozzles. The containers were irrigated gently to promote germination and growth and subsequently covered with transparent plastic hoods until the plants had rooted. This cover caused uniform germination of the test plants, unless this had been impaired by the active ingredients. Depending on the species, the plants were kept at 10-25° C. or 20-35° C., respectively. The test period extended over 2 to 4 weeks. During this time, the plants were tended, and their response to the individual treatments was evaluated. […] A moderate herbicidal activity is given at values of at least 60, a good herbicidal activity is given at values of at least 70, and a very good herbicidal activity is given at values of at least 85. The plants used in the greenhouse experiments were of the following species: [table]

The test system of experiment [3] is ABUTH (Abutilon theophrasti).
From the text: as §7

Experiment [4] has as its system ECHCG (Echinocloa crus-galli).
From the text: as §1, §2, §3, §4, §5, §6

For `CC=C(C)c1nc(N)nc(Nc2c(F)c(F)c(Br)c(F)c2F)n1` [Example 194], in the experiment with SETFA (Setaria faberi) (500 g/ha), the herbicidal activity entry was “good (a good herbicidal activity is given at values of at least 70)”.

As for `Nc1nc(Nc2c(F)c(F)c(F)c(F)c2F)nc(C(F)(F)C(F)(F)F)n1` [Example 68], the herbicidal activity result (with STEME (Stellaria media) (125 g/ha); in experiment [1] (125 g/ha); in experiment [2] (125 g/ha)) was “very good (a very good herbicidal activity is given at values of at least 85)” in each case.

As to `Nc1nc(Nc2c(F)cc(F)cc2F)nc(C2CCC2)n1` [Example 142], the herbicidal activity entry is “good (a good herbicidal activity is given at values of at least 70)” in the experiment with SETFA (Setaria faberi) (500 g/ha), “very good (a very good herbicidal activity is given at values of at least 85)” in experiment [2] (500 g/ha) and “good (a good herbicidal activity is given at values of at least 70)” in experiment [3] (500 g/ha).

As to `CC(C)(F)c1nc(N)nc(Nc2c(F)cc([N+](=O)[O-])cc2F)n1` [Example 220], in the experiment on SETFA (Setaria faberi) (500 g/ha), the herbicidal activity entry was “good (a good herbicidal activity is given at values of at least 70)”.

Take `Nc1nc(Nc2c(F)c(F)c(F)c(F)c2F)nc(C2CCC(C(F)(F)F)CC2)n1` (stereo not drawn) [Example 165]: the herbicidal activity entry (in experiment [4] (1000 g/ha); with SETFA (Setaria faberi) (1000 g/ha); in experiment [2] (1000 g/ha)) was “very good (a very good herbicidal activity is given at values of at least 85)” each time.

`C=C(C)c1nc(N)nc(Nc2c(F)c(F)c(F)c(F)c2F)n1` [Example 53]: the herbicidal activity result in the experiment on SETFA (Setaria faberi) (0.125 kg/ha) is listed as “good (a good herbicidal activity is given at values of at least 70)”; in experiment [2] (0.125 kg/ha), “very good (a very good herbicidal activity is given at values of at least 85)”.

In the case of `CC(C)(C)C1CCC(c2nc(N)nc(Nc3c(F)c(F)c(F)c(F)c3F)n2)CC1` (stereo not drawn) [Example 177], the herbicidal activity entry is “good (a good herbicidal activity is given at values of at least 70)” in the experiment with SETFA (Setaria faberi) (500 g/ha) and “very good (a very good herbicidal activity is given at values of at least 85)” in experiment [2] (500 g/ha).

For the compound `CC(Cl)(Cl)c1nc(N)nc(Nc2c(F)c(F)c(F)c(F)c2F)n1` [Example 147], the herbicidal activity result (in experiment [4] (250 g/ha); in the experiment on SETFA (Setaria faberi) (250 g/ha); in experiment [2] (250 g/ha)) was “very good (a very good herbicidal activity is given at values of at least 85)” each time.

Take `Nc1nc(C2CCCC2)nc(N(C(=O)C2CCCC2)c2c(F)c(F)cc(F)c2F)n1` [Example 304]: the herbicidal activity result (in experiment [4] (1000 g/ha); in the experiment with SETFA (Setaria faberi) (1000 g/ha); in experiment [2] (1000 g/ha)) was “very good (a very good herbicidal activity is given at values of at least 85)” throughout.

Regarding `COC1CCC(c2nc(N)nc(Nc3c(F)c(F)c(F)c(F)c3F)n2)CC1` (stereo not drawn) [Example 167], the herbicidal activity entry in the experiment with SETFA (Setaria faberi) (500 g/ha) was “very good (a very good herbicidal activity is given at values of at least 85)”; in experiment [2] (500 g/ha), “very good (a very good herbicidal activity is given at values of at least 85)”; in experiment [3] (500 g/ha) it was “good (a good herbicidal activity is given at values of at least 70)”.

As to `CCC(CC)c1nc(N)nc(Nc2c(F)c(F)c(F)c(F)c2F)n1` [Example 83], the herbicidal activity result (in the experiment on STEME (Stellaria media) (250 g/ha); in experiment [1] (250 g/ha); in experiment [4] (250 g/ha)) was “very good (a very good herbicidal activity is given at values of at least 85)” each time.

`Nc1nc(Nc2c(F)ccc(F)c2F)nc(C2CCCC2)n1` [Example 212]: the herbicidal activity entry (in experiment [4] (500 g/ha); in the experiment on SETFA (Setaria faberi) (500 g/ha); in experiment [2] (500 g/ha)) was “very good (a very good herbicidal activity is given at values of at least 85)” throughout.

For the compound `CCC(C)(Cl)c1nc(N)nc(Nc2c(F)c(F)cc(F)c2F)n1` (stereo not drawn) [Example 205], the herbicidal activity result (in experiment [4] (125 g/ha); in the experiment with SETFA (Setaria faberi) (125 g/ha); in experiment [2] (125 g/ha)) was “very good (a very good herbicidal activity is given at values of at least 85)” in each case.

As for `CC(C)(C)C(=O)N(c1nc(N)nc(C(C)(C)C)n1)c1c(F)c(F)cc(F)c1F` [Example 286], the herbicidal activity entry (in the experiment with SETFA (Setaria faberi) (125 g/ha); in experiment [2] (125 g/ha); in experiment [3] (125 g/ha)) was “very good (a very good herbicidal activity is given at values of at least 85)” in each case.

With `Nc1nc(Nc2c(F)c(F)cc(F)c2F)nc(C(F)F)n1` [Example 150], the herbicidal activity entry (in the experiment on SETFA (Setaria faberi) (500 g/ha); in experiment [2] (500 g/ha); in experiment [3] (500 g/ha)) was “very good (a very good herbicidal activity is given at values of at least 85)” in each case.

Consider `CCCCC(C#N)c1nc(N)nc(Nc2c(F)ccc(F)c2F)n1` (stereo not drawn) [Example 197], for which the herbicidal activity entry in the experiment with SETFA (Setaria faberi) (1000 g/ha) is on record as “good (a good herbicidal activity is given at values of at least 70)”.

Take `CN(c1nc(N)nc(C(C)(C)F)n1)c1c(F)c(F)c(F)c(F)c1F` [Example 307]: the herbicidal activity entry (with SETFA (Setaria faberi) (125 g/ha); in experiment [2] (125 g/ha)) was “very good (a very good herbicidal activity is given at values of at least 85)” throughout.

Take `CC(C)(C#N)c1nc(N)nc(Nc2c(F)c(F)c(F)c(F)c2F)n1` [Example 64]: the herbicidal activity entry (in the experiment with STEME (Stellaria media) (125 g/ha); in experiment [2] (125 g/ha); in experiment [3] (125 g/ha)) was “very good (a very good herbicidal activity is given at values of at least 85)” in each case.

Turning to `CC(C)(C)c1nc(N)nc(Nc2c(F)ccc(F)c2F)n1` [Example 80], the herbicidal activity entry (in the experiment with STEME (Stellaria media) (125 g/ha); in experiment [1] (125 g/ha); in experiment [4] (125 g/ha)) was “very good (a very good herbicidal activity is given at values of at least 85)” in each case.

`N#CC1(c2nc(N)nc(Nc3c(F)c(F)cc(F)c3F)n2)CC1` [Example 216]: the herbicidal activity entry is recorded as “good (a good herbicidal activity is given at values of at least 70)” in the experiment with SETFA (Setaria faberi) (250 g/ha), “very good (a very good herbicidal activity is given at values of at least 85)” in experiment [2] (250 g/ha) and “good (a good herbicidal activity is given at values of at least 70)” in experiment [3] (250 g/ha).
